# US6800101B2, “Deactivatable biocides for hydrocarbonaceous products” (priority 2001, dated 2004)
# Legend:
# bacterial inoculum = test: Neutralization of biocides with other nitrogen compounds; format: cell-based; settings: for microbial growth: n-C16; for neutralizing 10 ppm of gluteraldehyde: two moles per mole gluteraldehyde
# Text: The different nitrogen-containing compounds evaluated include the following:
# bacteria = format: cell-based
# in vivo = format: in vivo; settings: Cyprinodon variegatus (sheepshead minnow), in vivo
# Experimental: (§1) […]. EPA/600/4-90/027F Washington D.C. section 2.02, paragraph 1.) conducted at Pacific Eco-Risk Laboratories, Martinez, Calif.
# (§2) LOEC is the Lowest Observable Effect Concentration and is defined as the minimum concentration where mortality is observed for the test species. […] LC-50, the concentration that will cause mortality of 50% of the organisms tested within 96 h, is a calculated value based on all observations.
# (§3) The solutions were mixed for 48 hours prior to the start of the bioassays. The solutions were diluted to perform bioassays at starting glutaraldehyde concentrations of 100, 50, 37.5, 25, and 10, 5 mg/L
# [1] = test system: Larval Sheepshead Minnow (Cyprinodon variegatus); test: in vivo; format: in vivo; settings: for LOEC / NOEC: Cyprinodon variegatus (sheepshead minnow), in vivo, 96 h
# Experimental: as §1, §2, §3
# alkane degrading culture = test: Evaluation of biocides: growth inhibition on FT diesel and ALAD diesel; format: cell-based; for microbial growth: key: −: No Growth; +: Growth (White Unless Otherwise Indicated)
# Experimental: Growth Media: A standard minimal media containing only inorganic nutrients required for bacterial growth was used. The medium used to supply inorganic micronutrients to the growing culture of alkane degrading organisms consisted of 0.1 g/L MgSO4.7H2O, 0.5 g/L NaNO3, 0.02 millimolar FeSO4 and 0.63 g/L K2HPO4 and 0.19 g/L KH2PO4 to achieve a pH of 7 to 7.3.
# Test Conditions: 90 ml of growth media and 10 ml of either FT diesel or low sulfur (ALAD) diesel was added to 250 ml flasks. […] In addition to 2 alkynes, glutaraldehyde (glutaric dialdehyde 50%), was tested. The following summarizes the test conditions:
# Sterile control (media boiled prior to adding FT or ALAD, not inoculated)
# Inculated control (no inhibitor)
# 100 ppm inhibitor (on a total test volume basis or 1000 ppm in diesel)
# 1% inhibitor (on a total test volume basis or 10% in diesel).
# After inoculation, the flasks were place on a shaker-table (135 rpm) at room temperature and observed daily.
# microbial growth = test: Evaluation of lower amounts of water; format: cell-based; settings: 100 ppm; 90% Fischer-Tropsch diesel fuel, 10% minimal media; after 16 days
# Text: In this example, an experiment was done using a lower amount of water. 90% Fischer-Tropsch diesel fuel was mixed with 10% minimal media. One flask was used as a control and the other contained 100 ppm […].
# [2] = 10 ppm gluteraldehyde + two moles nitrogen compound per mole, day 0
# [3] = 10 ppm gluteraldehyde + two moles nitrogen compound per mole, day 1
# [4] = 10 ppm gluteraldehyde + two moles nitrogen compound per mole, day 2
# [5] = 10 ppm gluteraldehyde + two moles nitrogen compound per mole, day 6
# [6] = 10 ppm gluteraldehyde + two moles nitrogen compound per mole, day 7
# [7] = 10 ppm gluteraldehyde + two moles nitrogen compound per mole, day 9
# [8] = 10 ppm gluteraldehyde + two moles nitrogen compound per mole, day 13
# [9] = 10 ppm gluteraldehyde + two moles nitrogen compound per mole, day 20
# [10] = control: nitrogen compound without gluteraldehyde, day 0
# [11] = control: nitrogen compound without gluteraldehyde, day 1
# [12] = control: nitrogen compound without gluteraldehyde, day 2
# [13] = control: nitrogen compound without gluteraldehyde, day 6
# [14] = control: nitrogen compound without gluteraldehyde, day 7
# [15] = control: nitrogen compound without gluteraldehyde, day 9
# [16] = control: nitrogen compound without gluteraldehyde, day 13
# [17] = control: nitrogen compound without gluteraldehyde, day 20
# [18] = LA (ALAD) Diesel + 1 Wt %, Day 0
# [19] = LA (ALAD) Diesel + 1 Wt %, Day 1
# [20] = LA (ALAD) Diesel + 1 Wt %, Day 5
# [21] = LA (ALAD) Diesel + 1 Wt %, Day 7
# [22] = LA (ALAD) Diesel + 1 Wt %, Day 8
# [23] = LA (ALAD) Diesel + 1 Wt %, Day 19
# [24] = LA (ALAD) Diesel + 100 ppm, Day 0
# [25] = LA (ALAD) Diesel + 100 ppm, Day 1
# [26] = LA (ALAD) Diesel + 100 ppm, Day 5
# [27] = LA (ALAD) Diesel + 100 ppm, Day 7
# [28] = LA (ALAD) Diesel + 100 ppm, Day 8
# [29] = LA (ALAD) Diesel + 100 ppm, Day 19
smiles,measurement,setting,value
"OCCNCCO [DEA, Diethanolamine]",toxicity of the nitrogen-containing compound to microbial growth,bacterial inoculum,not excessively toxic
same,microbial growth,bacterial inoculum; [2],−
same,microbial growth,bacterial inoculum; [3],+
same,microbial growth,bacterial inoculum; [4],+
same,microbial growth,bacterial inoculum; [5],+
same,microbial growth,bacterial inoculum; [6],+
same,microbial growth,bacterial inoculum; [7],+
same,microbial growth,bacterial inoculum; [8],+
same,microbial growth,bacterial inoculum; [9],+
same,microbial growth,bacterial inoculum; [10],−
same,microbial growth,bacterial inoculum; [11],−
same,microbial growth,bacterial inoculum; [12],−
same,microbial growth,bacterial inoculum; [13],+
same,microbial growth,bacterial inoculum; [14],+
same,microbial growth,bacterial inoculum; [15],+
same,microbial growth,bacterial inoculum; [16],+
same,microbial growth,bacterial inoculum; [17],+
same,neutralizing 10 ppm of gluteraldehyde,bacterial inoculum,effective
"O=CCCCC=O [G, glutaraldehyde]",microbial growth,bacteria,no growth
same,LC50 at 96 h,in vivo,> 100 µg/mL
same,LOEC,[1],25 mg/L
same,NOEC,[1],13 mg/L
same,LC50,"[1]; second experiment, Glutaraldehyde 100 mg/L, MEA 125 mg/L, molar ratio 1:2, mixed 48 hours",>100 µg/mL
same,effectiveness as biocide,alkane degrading culture; ALAD diesel fuel,effective at a lower concentration
same,microbial growth,"alkane degrading culture; FT Diesel + 1 Wt %, Day 0",−
same,microbial growth,"alkane degrading culture; FT Diesel + 1 Wt %, Day 1",−
same,microbial growth,"alkane degrading culture; FT Diesel + 1 Wt %, Day 5",−
same,microbial growth,"alkane degrading culture; FT Diesel + 1 Wt %, Day 7",−
same,microbial growth,"alkane degrading culture; FT Diesel + 1 Wt %, Day 8",−
same,microbial growth,"alkane degrading culture; FT Diesel + 1 Wt %, Day 19",−
same,microbial growth,"alkane degrading culture; FT Diesel + 100 ppm, Day 0",−
same,microbial growth,"alkane degrading culture; FT Diesel + 100 ppm, Day 1",−
same,microbial growth,"alkane degrading culture; FT Diesel + 100 ppm, Day 5",−
same,microbial growth,"alkane degrading culture; FT Diesel + 100 ppm, Day 7",−
same,microbial growth,"alkane degrading culture; FT Diesel + 100 ppm, Day 8",−
same,microbial growth,"alkane degrading culture; FT Diesel + 100 ppm, Day 19",+
same,effectiveness as biocide,alkane degrading culture; Fischer-Tropsch diesel fuel,effective at a lower concentration
same,microbial growth,alkane degrading culture; [18],−
same,microbial growth,alkane degrading culture; [19],−
same,microbial growth,alkane degrading culture; [20],−
same,microbial growth,alkane degrading culture; [21],−
same,microbial growth,alkane degrading culture; [22],−
same,microbial growth,alkane degrading culture; [23],−
same,microbial growth,alkane degrading culture; [24],−
same,microbial growth,alkane degrading culture; [25],−
same,microbial growth,alkane degrading culture; [26],−
same,microbial growth,alkane degrading culture; [27],−
same,microbial growth,alkane degrading culture; [28],−
same,microbial growth,alkane degrading culture; [29],−
"C#CCCCC [H, 1-hexyne]",microbial growth,microbial growth,no growth
same,microbial growth,"alkane degrading culture; FT Diesel + 1 Wt %, Day 0",−
same,microbial growth,"alkane degrading culture; FT Diesel + 1 Wt %, Day 1",−
same,microbial growth,"alkane degrading culture; FT Diesel + 1 Wt %, Day 5",−
same,microbial growth,"alkane degrading culture; FT Diesel + 1 Wt %, Day 7",−
same,microbial growth,"alkane degrading culture; FT Diesel + 1 Wt %, Day 8",−
same,microbial growth,"alkane degrading culture; FT Diesel + 1 Wt %, Day 19",−
same,microbial growth,"alkane degrading culture; FT Diesel + 100 ppm, Day 0",−
same,microbial growth,"alkane degrading culture; FT Diesel + 100 ppm, Day 1",−
same,microbial growth,"alkane degrading culture; FT Diesel + 100 ppm, Day 5",+
same,microbial growth,"alkane degrading culture; FT Diesel + 100 ppm, Day 7",+
same,microbial growth,"alkane degrading culture; FT Diesel + 100 ppm, Day 8",+
same,microbial growth,"alkane degrading culture; FT Diesel + 100 ppm, Day 19",+
same,microbial growth,alkane degrading culture; [18],−
same,microbial growth,alkane degrading culture; [19],−
same,microbial growth,alkane degrading culture; [20],−
same,microbial growth,alkane degrading culture; [21],−
same,microbial growth,alkane degrading culture; [22],−
same,microbial growth,alkane degrading culture; [23],−
same,microbial growth,alkane degrading culture; [24],−
same,microbial growth,alkane degrading culture; [25],−
same,microbial growth,alkane degrading culture; [26],+
same,microbial growth,alkane degrading culture; [27],+
same,microbial growth,alkane degrading culture; [28],+
same,microbial growth,alkane degrading culture; [29],+
"NCCO [MEA, Monoethanolamine]",toxicity of the nitrogen-containing compound to microbial growth,bacterial inoculum,not excessively toxic
same,microbial growth,bacterial inoculum; [2],−
same,microbial growth,bacterial inoculum; [3],−
same,microbial growth,bacterial inoculum; [4],−
same,microbial growth,bacterial inoculum; [5],+
same,microbial growth,bacterial inoculum; [6],+
same,microbial growth,bacterial inoculum; [7],+
same,microbial growth,bacterial inoculum; [8],+
same,microbial growth,bacterial inoculum; [9],+
same,microbial growth,bacterial inoculum; [10],−
same,microbial growth,bacterial inoculum; [11],−
same,microbial growth,bacterial inoculum; [12],−
same,microbial growth,bacterial inoculum; [13],−
same,microbial growth,bacterial inoculum; [14],+
same,microbial growth,bacterial inoculum; [15],+
same,microbial growth,bacterial inoculum; [16],+
same,microbial growth,bacterial inoculum; [17],+
same,neutralizing 10 ppm of gluteraldehyde,bacterial inoculum,effective
same,LOEC,[1],1700 mg/L
same,NOEC,[1],1000 mg/L
"C#CCO [P, Propargyl alcohol]",microbial growth,"alkane degrading culture; FT Diesel + 1 Wt %, Day 0",−
same,microbial growth,"alkane degrading culture; FT Diesel + 1 Wt %, Day 1",−
same,microbial growth,"alkane degrading culture; FT Diesel + 1 Wt %, Day 5",−
same,microbial growth,"alkane degrading culture; FT Diesel + 1 Wt %, Day 7",−
same,microbial growth,"alkane degrading culture; FT Diesel + 1 Wt %, Day 8",−
same,microbial growth,"alkane degrading culture; FT Diesel + 1 Wt %, Day 19",−
same,microbial growth,"alkane degrading culture; FT Diesel + 100 ppm, Day 0",−
same,microbial growth,"alkane degrading culture; FT Diesel + 100 ppm, Day 1",−
same,microbial growth,"alkane degrading culture; FT Diesel + 100 ppm, Day 5",−
same,microbial growth,"alkane degrading culture; FT Diesel + 100 ppm, Day 7",+
same,microbial growth,"alkane degrading culture; FT Diesel + 100 ppm, Day 8",+
same,microbial growth,"alkane degrading culture; FT Diesel + 100 ppm, Day 19",+
same,microbial growth,alkane degrading culture; [18],−
same,microbial growth,alkane degrading culture; [19],−
same,microbial growth,alkane degrading culture; [20],−
same,microbial growth,alkane degrading culture; [21],−
same,microbial growth,alkane degrading culture; [22],−
same,microbial growth,alkane degrading culture; [23],−
same,microbial growth,alkane degrading culture; [24],−
same,microbial growth,alkane degrading culture; [25],−
same,colour of growth,alkane degrading culture; [26],Yellow
same,microbial growth,alkane degrading culture; [26],+
same,colour of growth,alkane degrading culture; [27],Yellow
same,microbial growth,alkane degrading culture; [27],+
same,colour of growth,alkane degrading culture; [28],Yellow
same,microbial growth,alkane degrading culture; [28],+
same,colour of growth,alkane degrading culture; [29],Yellow
same,microbial growth,alkane degrading culture; [29],+
"Nc1ccccc1 [aniline, Aniline]",toxicity of the nitrogen-containing compound to microbial growth,bacterial inoculum,excessively toxic
same,microbial growth,bacterial inoculum; [2],−
same,microbial growth,bacterial inoculum; [3],−
same,microbial growth,bacterial inoculum; [4],−
same,microbial growth,bacterial inoculum; [5],−
same,microbial growth,bacterial inoculum; [6],−
same,microbial growth,bacterial inoculum; [7],−
same,microbial growth,bacterial inoculum; [8],−
same,microbial growth,bacterial inoculum; [9],−
"CCNCC [diethylamine, Diethylamine]",toxicity of the nitrogen-containing compound to microbial growth,bacterial inoculum,not excessively toxic
same,microbial growth,bacterial inoculum; [2],−
same,microbial growth,bacterial inoculum; [3],−
same,microbial growth,bacterial inoculum; [4],−
same,microbial growth,bacterial inoculum; [5],+
same,microbial growth,bacterial inoculum; [6],+
same,microbial growth,bacterial inoculum; [7],+
same,microbial growth,bacterial inoculum; [8],+
same,microbial growth,bacterial inoculum; [9],+
same,microbial growth,bacterial inoculum; [10],−
same,microbial growth,bacterial inoculum; [11],−
same,microbial growth,bacterial inoculum; [12],−
same,microbial growth,bacterial inoculum; [13],+
same,microbial growth,bacterial inoculum; [14],+
same,microbial growth,bacterial inoculum; [15],+
same,microbial growth,bacterial inoculum; [16],+
same,microbial growth,bacterial inoculum; [17],+
same,neutralizing 10 ppm of gluteraldehyde,bacterial inoculum,effective
